Data taken from patent US8334316B2, “Substituted organosulfur compounds and methods of using thereof” (ACEA Biosciences, Inc., priority 2004, dated 2012).
“And” between values parts separate entries of the source, which are not always exact repeats. Equal values may be shown once. Marks after values point to notes of the source that are not given here.

Assays:
[1] = tested on: P388 lymphocytic leukemia; experiment: Murine P388 lymphocytic leukemia model (intraperitoneal transplantation), life span; type: in vivo, mouse; settings: for Average life span X ± SD: observed within 30 days; for Life span ratio %: vs solvent control
Experimental: Both male and female mice were used.
Preparation and Administration of Test Compounds.
To prepare cancer cells for the P388 murine lymphocytic leukemia model, ascites of a P388 leukemia-bearing mouse were removed under sterile condition. The ascites were diluted in normal saline (1:6 for ascites to normal saline) to prepare cell suspension. 0.2 mL of the cell suspension was then injected intraperitoneally. […] The life span of carrier mice was determined within 30 days. The life span ratio comparing to the negative control group of the carrier mice in each compound treatment group was calculated according to the formula: Life span ratio %=average life span for the compound treatment group/average life span for the negative control group×100% (4)

[2] = tested on: ao10/17 human ovarian cancer; experiment: ao10/17 human ovarian cancer xenograft in nude mice (Example 4); type: in vivo; settings: for tumor inhibition rate %: vs solvent control
Experimental: Only female mice were used in this study. […] The high, middle and low doses of ACEA100108 were 50, […] and 8 mg/kg/d, respectively.
Preparation and Administration of Test Compounds. […] The high, middle and low dose of compound ACEA100108 was 50, 20 and 8 mg/kg, respectively.
The tumor tissues were grounded in normal saline (1:6 for tumor volume to saline volume) and tumor cell suspensions were prepared in the normal saline.
For the human ovarian cancer xenograft model, all used materials, including animal food, animal cage, supporting materials and apparatus contacted by animals, were high-pressure sterilized. Nude mice were maintained in laminar flow shelves under SPF condition. After tumor transplantation, mouse weight and tumor size in each compound dosage group were dynamically monitored and plotted. The tumor size was determined by measuring the major axis (a) and minor axis (b) of the tumor, and tumor volume was calculated according to the equation (3) in Example 3.

HCT-8 human colon cancer = HCT-8 human colon cancer xenograft in nude mice (Example 3); type: in vivo; settings: for tumor inhibition rate %: vs solvent control
Excerpt: Both male and female mice were used. […] Test control. […] Preparation and Administration of Test Compounds. […] For human tumor xenograft model, all used materials, including animal food, animal cage, supporting materials and apparatus contacted by animals, were high-pressure sterilized. Nude mice were maintained in laminar flow shelves under SPF condition. After tumor transplantation, mouse weight and tumor size in each compound dosage group were dynamically monitored and plotted.

[3] = 10 mg/kg/d iv x7 qd, 7 day after transplantation
[4] = 8 mg/kg iv x7 qd, 7 D after transplantation
[5] = 20 mg/kg iv x7 qd, 7 D after transplantation
[6] = 50 mg/kg iv x7 qd, 7 D after transplantation
[7] = 8 mg/kg/d iv x7 qd, 7 day after transplantation
[8] = 20 mg/kg/d iv x7 qd, 7 day after transplantation
[9] = 20 mg/kg/d iv x7 qd, 25 d (end)
[10] = 50 mg/kg/d iv x7 qd, 7 day after transplantation
[11] = 50 mg/kg/d iv x7 qd, 25 d (end)

CC(=O)O[C@H]1C(=O)[C@@]2(C)[C@H]([C@H](OC(=O)c3ccccc3)[C@]3(O)C[C@H](OC(=O)[C@H](O)[C@@H](NC(=O)c4ccccc4)c4ccccc4)C(C)=C1C3(C)C)[C@]1(OC(C)=O)CO[C@@H]1C[C@@H]2O [Taxol, paclitaxel, reference compound]
animal No. beginning/end (survivors) ([1]; 10 mg/kg/d iv x7 qd): 10/0 | Average life span X ± SD ([1]; 10 mg/kg/d iv x7 qd): 10.5 ± 1.18 | Tumor volume (cm^3) ([2]; 10 mg/kg iv x7 qd, 7 D after transplantation): 0.01 cm^3 | Tumor volume (cm^3) ([2]; 10 mg/kg iv x7 qd, 14 d): 0.033 ± 0.02 cm^3 | Tumor volume (cm^3) ([2]; 10 mg/kg iv x7 qd, 21 d): 0.196 ± 0.03 cm^3 | Tumor volume (cm^3) ([2]; 10 mg/kg iv x7 qd, 24 d): 0.349 ± 0.08 cm^3 | Tumor weight ([2]; 10 mg/kg/d iv x7 qd): 0.77 ± 0.12 g | tumor inhibition rate % ([2]; 10 mg/kg/d iv x7 qd): 45.39% | TV inhibition rate % T/C (HCT-8 human colon cancer; 10 mg/kg/d iv x7 qd): 44.45% | Tumor weight (HCT-8 human colon cancer; 10 mg/kg/d iv x7 qd): 1.02 ± 0.11 g | Mice with palpable tumor / total mice (HCT-8 human colon cancer; [3]): 6/6†† | Tumor volume (cm^3) (HCT-8 human colon cancer; [3]): 0.01 cm^3 | Tumor volume (cm^3) (HCT-8 human colon cancer; 10 mg/kg/d iv x7 qd, 14 d): 0.116 ± 0.03 cm^3 | Tumor volume (cm^3) (HCT-8 human colon cancer; 10 mg/kg/d iv x7 qd, 25 d (end)): 0.694 cm^3 and 0.694 ± 0.15 cm^3 | tumor inhibition rate % (HCT-8 human colon cancer; 10 mg/kg/d iv x7 qd): 33.33%

Fc1ccc(CSSSCc2ccc(F)cc2)cc1 [ACEA100108, Di(p-fluorobenzyl)trisulfide]
animal No. beginning/end (survivors) ([1]; 12.5 mg/kg/d iv x7 qd): 10/0 | Average life span X ± SD ([1]; 12.5 mg/kg/d iv x7 qd): 10.6 ± 0.84 | Life span ratio % ([1]; 12.5 mg/kg/d iv x7 qd): 109.28% | animal No. beginning/end (survivors) ([1]; 25 mg/kg/d iv x7 qd): 10/0 | Average life span X ± SD ([1]; 25 mg/kg/d iv x7 qd): 10.4 ± 1.17 | Life span ratio % ([1]; 25 mg/kg/d iv x7 qd): 107.22% | animal No. beginning/end (survivors) ([1]; 50 mg/kg/d iv x7 qd): 10/0 | Average life span X ± SD ([1]; 50 mg/kg/d iv x7 qd): 10.3 ± 0.95 | Life span ratio % ([1]; 50 mg/kg/d iv x7 qd): 106.18% | Anticancer effect on P388 mouse leukemia model ([1]; 50, 25, 12.5 mg/kg iv x7 qd): did not exhibit anticancer effect | Body weight of mice ([2]; 8 mg/kg iv x7 qd, 0 d (beginning)): 17.7 g and 17.7 ± 0.5 g | Mice with palpable tumor / total mice [2, 4]: 3/6 | Tumor volume (cm^3) [2, 4]: 0.01 cm^3 | Body weight of mice ([2]; 8 mg/kg iv x7 qd, 7 d): 19 ± 0.6 g | Body weight of mice ([2]; 8 mg/kg iv x7 qd, 14 d): 20.5 ± 1 g | Tumor volume (cm^3) ([2]; 8 mg/kg iv x7 qd, 14 d): 0.048 ± 0.03 cm^3 | Body weight of mice ([2]; 8 mg/kg iv x7 qd, 21 d): 21.2 ± 0.8 g | Tumor volume (cm^3) ([2]; 8 mg/kg iv x7 qd, 21 d): 0.249 ± 0.05 cm^3 | Tumor volume (cm^3) ([2]; 8 mg/kg iv x7 qd, 24 d): 0.89 ± 0.39 cm^3 | Body weight of mice ([2]; 8 mg/kg iv x7 qd, 24 d (end)): 22.2 g and 22.2 ± 0.8 g | Tumor weight ([2]; 8 mg/kg/d iv x7 qd): 0.942 ± 0.14 g | tumor inhibition rate % ([2]; 8 mg/kg/d iv x7 qd): 33.19% | Mice with palpable tumor / total mice [2, 5]: 2/6 | Tumor volume (cm^3) [2, 5]: 0.01 cm^3 | Body weight of mice ([2]; 20 mg/kg iv x7 qd, 7 d): 18.3 ± 0.8 g | Body weight of mice ([2]; 20 mg/kg iv x7 qd, 14 d): 19.8 ± 0.8 g | Tumor volume (cm^3) ([2]; 20 mg/kg iv x7 qd, 14 d): 0.03 ± 0.02 cm^3 | Body weight of mice ([2]; 20 mg/kg iv x7 qd, 21 d): 20.5 ± 1 g | Tumor volume (cm^3) ([2]; 20 mg/kg iv x7 qd, 21 d): 0.206 ± 0.03 cm^3 | Tumor volume (cm^3) ([2]; 20 mg/kg iv x7 qd, 24 d): 0.402 ± 0.1 cm^3 | Body weight of mice ([2]; 20 mg/kg iv x7 qd, 24 d (end)): 22.0 g and 22.0 ± 1.4 g | Tumor weight ([2]; 20 mg/kg/d iv x7 qd): 0.752 ± 0.12 g | tumor inhibition rate % ([2]; 20 mg/kg/d iv x7 qd): 46.67% | Body weight of mice ([2]; 50 mg/kg iv x7 qd, 0 d (beginning)): 17.2 g and 17.2 ± 0.8 g | Mice with palpable tumor / total mice [2, 6]: 1/6 | Tumor volume (cm^3) [2, 6]: 0.01 cm^3 | Body weight of mice ([2]; 50 mg/kg iv x7 qd, 7 d): 16.7 ± 0.8 g | Body weight of mice ([2]; 50 mg/kg iv x7 qd, 14 d): 17.8 ± 1.5 g | Mice with palpable tumor / total mice ([2]; 50 mg/kg iv x7 qd, 14 d): 6/6 | Tumor volume (cm^3) ([2]; 50 mg/kg iv x7 qd, 14 d): 0.01 cm^3 | Body weight of mice ([2]; 50 mg/kg iv x7 qd, 21 d): 19.3 ± 1 g | Tumor volume (cm^3) ([2]; 50 mg/kg iv x7 qd, 21 d): 0.148 ± 0.02 cm^3 | Tumor volume (cm^3) ([2]; 50 mg/kg iv x7 qd, 24 d): 0.316 ± 0.06 cm^3 | Body weight of mice ([2]; 50 mg/kg iv x7 qd, 24 d (end)): 21.3 g and 21.3 ± 1.2 g | Tumor weight ([2]; 50 mg/kg/d iv x7 qd): 0.657 ± 0.13 g | tumor inhibition rate % ([2]; 50 mg/kg/d iv x7 qd): 53.40% | TV inhibition rate % T/C (HCT-8 human colon cancer; 8 mg/kg/d iv x7 qd): 55.73% | Tumor weight (HCT-8 human colon cancer; 8 mg/kg/d iv x7 qd): 1.30 ± 0.23 g | Mouse Body weight (HCT-8 human colon cancer; 8 mg/kg/d iv x7 qd, 0 Day (beginning)): 18.8 g and 18.8 ± 0.8 g | Mouse Body weight (HCT-8 human colon cancer; 8 mg/kg/d iv x7 qd, 7 d): 19.7 ± 0.8 g | Mice with palpable tumor / total mice (HCT-8 human colon cancer; [7]): 6/6†† | Tumor volume (cm^3) (HCT-8 human colon cancer; [7]): 0.01 cm^3 | Mouse Body weight (HCT-8 human colon cancer; 8 mg/kg/d iv x7 qd, 14 d): 21.3 ± 1.2 g | Tumor volume (cm^3) (HCT-8 human colon cancer; 8 mg/kg/d iv x7 qd, 14 d): 0.166 ± 0.05 cm^3 | Mouse Body weight (HCT-8 human colon cancer; 8 mg/kg/d iv x7 qd, 21 d): 21.8 ± 1.2 g | Tumor volume (cm^3) (HCT-8 human colon cancer; 8 mg/kg/d iv x7 qd, 21 d): 0.379 ± 0.04 cm^3 | Mouse Body weight (HCT-8 human colon cancer; 8 mg/kg/d iv x7 qd, 25 d (end)): 22.5 g and 22.5 ± 1 g | Tumor volume (cm^3) (HCT-8 human colon cancer; 8 mg/kg/d iv x7 qd, 25 d (end)): 0.870 cm^3 and 0.87 ± 0.15 cm^3 | tumor inhibition rate % (HCT-8 human colon cancer; 8 mg/kg/d iv x7 qd): 15.03% | TV inhibition rate % T/C (HCT-8 human colon cancer; 20 mg/kg/d iv x7 qd): 41.89% | Tumor weight (HCT-8 human colon cancer; 20 mg/kg/d iv x7 qd): 1.10 ± 0.23 g | Mouse Body weight (HCT-8 human colon cancer; 20 mg/kg/d iv x7 qd, 0 Day (beginning)): 18.5 g and 18.5 ± 1 g | Mouse Body weight (HCT-8 human colon cancer; 20 mg/kg/d iv x7 qd, 7 d): 19.5 ± 1 g | Mice with palpable tumor / total mice (HCT-8 human colon cancer; [8]): 6/6†† | Tumor volume (cm^3) (HCT-8 human colon cancer; [8]): 0.01 cm^3 | Mouse Body weight (HCT-8 human colon cancer; 20 mg/kg/d iv x7 qd, 14 d): 20.7 ± 1 g | Tumor volume (cm^3) (HCT-8 human colon cancer; 20 mg/kg/d iv x7 qd, 14 d): 0.122 ± 0.04 cm^3 | Mouse Body weight (HCT-8 human colon cancer; 20 mg/kg/d iv x7 qd, 21 d): 21.8 ± 1.2 g | Tumor volume (cm^3) (HCT-8 human colon cancer; 20 mg/kg/d iv x7 qd, 21 d): 0.317 ± 0.05 cm^3 | Mouse Body weight (HCT-8 human colon cancer; [9]): 22.5 g and 22.5 ± 1 g | Tumor volume (cm^3) (HCT-8 human colon cancer; [9]): 0.654 cm^3 and 0.654 ± 0.09 cm^3 | tumor inhibition rate % (HCT-8 human colon cancer; 20 mg/kg/d iv x7 qd): 28.10% | TV inhibition rate % T/C (HCT-8 human colon cancer; 50 mg/kg/d iv x7 qd): 33.63% | Tumor weight (HCT-8 human colon cancer; 50 mg/kg/d iv x7 qd): 0.832 ± 0.10 g | Mouse Body weight (HCT-8 human colon cancer; 50 mg/kg/d iv x7 qd, 0 Day (beginning)): 18.3 g and 18.3 ± 1 g | Mouse Body weight (HCT-8 human colon cancer; 50 mg/kg/d iv x7 qd, 7 d): 17.7 ± 1.2 g | Mice with palpable tumor / total mice (HCT-8 human colon cancer; [10]): 6/6†† | Tumor volume (cm^3) (HCT-8 human colon cancer; [10]): 0.01 cm^3 | Mouse Body weight (HCT-8 human colon cancer; 50 mg/kg/d iv x7 qd, 14 d): 17.8 ± 2.3 g | Tumor volume (cm^3) (HCT-8 human colon cancer; 50 mg/kg/d iv x7 qd, 14 d): 0.112 ± 0.02 cm^3 | Mouse Body weight (HCT-8 human colon cancer; 50 mg/kg/d iv x7 qd, 21 d): 19.5 ± 1.6 g | Tumor volume (cm^3) (HCT-8 human colon cancer; 50 mg/kg/d iv x7 qd, 21 d): 0.236 ± 0.02 cm^3 | Mouse Body weight (HCT-8 human colon cancer; [11]): 20.3 g and 20.3 ± 1 g | Tumor volume (cm^3) (HCT-8 human colon cancer; [11]): 0.525 cm^3 and 0.525 ± 0.14 cm^3 | tumor inhibition rate % (HCT-8 human colon cancer; 50 mg/kg/d iv x7 qd): 45.62%
